Data reported in patent US11173144B2, “Adrenergic receptor modulating compounds and methods of using the same” (The Board of Trustees of the Leland Stanford Junior …, priority 2016, dated 2021).
“Also recorded” adds a separate entry of the source.

What was measured:
α1A adrenergic receptor = α1A adrenergic receptor (Homo sapiens (Human), UniProt P35348); assay: CNS target panel screen: α1A adrenergic receptor; type: binding
Excerpt: From a drug development perspective, characterizing the off-target effects of lead compounds is an important issue, as interactions with off-target molecules may lead to undesirable side effects. Thus we screened xamoterol (S) and the key compound compound 43 against a panel of CNS relevant targets, including G-protein coupled receptor and transporters. […].

ADRB1 = ADRB1 (Homo sapiens (Human), UniProt P08588); assay: β-arrestin assay (PathHunter enzyme fragment complementation, CHO-K1-ADRB1 cells); type: cell-based; conditions: Table 4
Description: Pharmacological activity of compounds in the β-arrestin pathway mediated by ADRB1 are evaluated using an enzyme fragment complementation method with a β-galactosidase functional reporter. An engineered CHO-K1-ADRB1 PathHunter cell line (DiscoveRx) is used in the assay. In this cell line, enzyme acceptor (β-galactosidase fragment) is fused to β-arrestin and enzyme donor (β-galactosidase fragment) is fused to the ADRB1. Thus, activation of the ADRB1 stimulates binding of β-arrestin to the ProLink-tagged ADRB1 and forces complementation of the two enzyme fragments, resulting in the formation of an active β-galactosidase enzyme. Briefly, CHO-K1-ADRB1 PathHunter cell lines are plated in a total volume of 20 μL cell plating reagent (DiscoveRx, 93-0563R0A) at a density of 2,500 cells/well into 384 well microplates and incubated overnight at 37° C. in 5% CO2. […] Chemiluminescent signal is then read with a PerkinElmer Envision™ instrument. The results are expressed as a percent of the maximum efficacy achieved with isoproterenol.
Effects of compounds on β-arrestin signaling pathways are determined using CHO cells stably expressing human β1-adrenergic receptors or human β2-adrenergic receptors with PathHunter® β-Arrestin GPCR assay system (DiscoveRx). In this system, adrenergic receptor is fused in frame with the small enzyme fragment ProLink™ and co-expressed in cell stably expressing at fusion protein of β-arrestin and the larger, N-terminal deletion mutant of β-galactosidase enzyme. Activation of the adrenergic receptor stimulates binding of β-arrestin to the ProLink-tagged receptor and forces complementation of the two enzyme fragments, resulting in the formation of an active β-gal enzyme. This interaction leads to an increase in enzyme activity that can be measured using chemiluminescent detection reagents. The effects of compounds on β-arrestin signaling pathways are determined 90 minutes after incubating the cells with the test compounds.

[1] = test system: Abeta-induced LTP impairment in hippocampal slices; assay: Long-term potentiation in hippocampal slices exposed to amyloid beta; conditions: mouse hippocampal slices, 10 uM
Description: Mice were anesthetized with isoflurane before decapitation. The brain was quickly removed and immersed for 2 min in ice-cold low-calcium modified artificial cerebrospinal fluid (mACSF) composed of (in mM): 119 NaCl, 2.5 KCl, 1 CaCl2, 3 MgSO4, 1 NaH2PO4, 26 NaHCO3 and 10 glucose, osmolarity ˜305 mOsm, continuously bubbled with 95% O2-5% CO2, pH=7.4. The hippocampus was dissected out and cut in ice-cold mACSF with a vibratome (Leica VT1000S; Nussloch, Germany) into […] slices from the middle part of the hippocampus. The slices were allowed to recover in oxygenated mACSF at 33° C. for 10 min, and then at room temperature for an additional 2-3 hr before experimental recordings. Slices were transferred into the recording chamber and superfused with regular ACSF containing (in mM): 119 NaCl, 2.5 KCl, 2.5 CaCl2, 1.3 MgSO4, 1 NaH2PO4, 26 NaHCO3 and 10 glucose, continuously bubbled with 95% O2-5% C02, pH=7.4, osmolarity ˜305 mOsm, at a constant rate of 2.7 mL/min at 32° C. […] The initial slope of field excitatory postsynaptic potentials (fEPSP) was measured at latencies 0.1-0.9 ms. […] After stabilization of responses, input-output dependences were measured using series of stimulation intensities (range 30-150 μA). […] LTP was induced by high-frequency tetanization ([…], 100 Hz for 1 sec), and the responses were recorded for the period of 1.5 h after the tetanus.

[2] = test system: tMCAO rat model of stroke; assay: tMCAO model of stroke, Paw-Whisker test of sensorimotor function; type: in vivo; conditions: 3 mg/kg then 0.3 mg/kg daily subcutaneous, 28 days
Description: The tMCAO is performed on animal under isoflurane inhalation anesthesia (4% for induction and 1.5-2.5% for maintenance) in airoxygen mixture ratio 3:1. Ventral neck area is shaved by electric razor and disinfected using betadine followed by 70% ethanol solution. Subsequently, a midline incision is made in the ventral neck area, sharp and blunt dissection techniques are used to isolate left common carotid artery (CCA) and the internal and external carotid arteries (ICA and ECA, respectively). The proximal CCA is ligated below the bifurcation using 3-0 braided silk suture allowing enough room for filament insertion in the area between the ligation and bifurcation. Subsequently, ECA is ligated at its origin dose to the CCA bifurcation, so that the occipital artery stays proximal to the ligature. A microvessel dip is placed on ICA temporarily to avoid excessive bleeding during filament insertion. In order to occlude the origin of middle cerebral artery (MCA), a monofilament with silicon coated tip (0.39 mm diameter, 5-6 mm long) is then inserted into the CCA, the microvessel dip removed following filament advancement into the ICA 20 mm from the bifurcation through small, horizontal incision. […] Sensorimotor function was measured by the Paw-Whisker test (vibrissae-evoked forelimb placing) once a week until 4 weeks post stroke. […]

Sequence of ADRB1 (P08588 whole entry, the tested form may be a part): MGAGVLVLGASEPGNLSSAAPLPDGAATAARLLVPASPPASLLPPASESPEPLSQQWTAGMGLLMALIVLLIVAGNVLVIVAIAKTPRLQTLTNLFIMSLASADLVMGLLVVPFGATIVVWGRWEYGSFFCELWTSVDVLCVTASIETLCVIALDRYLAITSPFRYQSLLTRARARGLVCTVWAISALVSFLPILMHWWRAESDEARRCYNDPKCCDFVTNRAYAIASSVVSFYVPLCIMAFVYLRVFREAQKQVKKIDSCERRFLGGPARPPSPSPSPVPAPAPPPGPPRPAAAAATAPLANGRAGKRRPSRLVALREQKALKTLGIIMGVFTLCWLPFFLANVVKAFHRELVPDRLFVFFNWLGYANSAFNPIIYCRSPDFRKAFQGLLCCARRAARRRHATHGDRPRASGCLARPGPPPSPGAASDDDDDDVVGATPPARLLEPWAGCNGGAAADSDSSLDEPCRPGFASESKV
Sequence of α1A adrenergic receptor (P35348 whole entry): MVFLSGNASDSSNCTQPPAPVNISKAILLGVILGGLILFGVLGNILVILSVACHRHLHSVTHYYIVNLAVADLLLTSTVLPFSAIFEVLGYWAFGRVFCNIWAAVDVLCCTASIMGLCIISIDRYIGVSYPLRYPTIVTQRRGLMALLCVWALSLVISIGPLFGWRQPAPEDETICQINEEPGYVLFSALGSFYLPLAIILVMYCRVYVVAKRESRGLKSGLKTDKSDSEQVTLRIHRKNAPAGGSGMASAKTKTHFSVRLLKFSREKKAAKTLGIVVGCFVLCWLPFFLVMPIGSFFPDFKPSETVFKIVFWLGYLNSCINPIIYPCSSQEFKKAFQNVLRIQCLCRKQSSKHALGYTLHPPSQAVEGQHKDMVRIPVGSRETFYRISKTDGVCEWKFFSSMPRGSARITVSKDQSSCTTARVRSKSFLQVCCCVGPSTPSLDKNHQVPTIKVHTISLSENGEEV

| Compound | affinity for α1A adrenergic receptor (α1A adrenergic receptor) | β-arrestin pathway % Iso max (ADRB1; percent efficacy compared to the maximum response achieved with isoproterenol) [%] | EC50 (ADRB1; read-out: β-arrestin pathway ADRB1 EC50) [nM] | amyloid beta-induced LTP impairment [1] | sensorimotor function [2] |
| --- | --- | --- | --- | --- | --- |
| COc1ccccc1OCCNC[C@H](O)COc1ccc(O)cc1 [Compound 43] | significant affinity | 18.3 | 10 to 100 |  |  |
| O=C(NCCNCC(O)COc1ccc(O)cc1)N1CCOCC1 (centres unmarked) [Xamoterol, reference compound] |  |  |  | blocks the LTP impairment induced by Ab; also recorded: blocks the Ab-induced LTP in impairment | improves sensorimotor function |
